Columns and labels:
[1] = biological target: T1, αIIbβ3 integrin (K562-αIIbβ3 cells) (Homo sapiens, UniProt P05106+P08514); assay: Cell binding assay on K562-αIIbβ3 cells (flow cytometry); settings: K562-αIIbβ3 versus K562-αvβ3 cells
T1 construct: expressed in transfected cells; host or cells: K562 leukemia cells (from S. Blystone)
Protocol: K562 cells stably expressing αIIbβ3, αvβ3, or αvβ5 were obtained from S. Blystone and maintained in IMDM media (Gibco) containing 10% FBS and 1.0 mg/mL geneticin. For binding assays, 10^5 cells were suspended in IBB, and varying concentrations of AgRP peptides were added. After 3 hour incubation at 4° C., the cells were centrifuged, aspirated, and resuspended in ice-cold BPBS containing a 1:20 dilution of fluorescein-conjugated goat anti-His antibody (Bethyl) for […]. The cells were then centrifuged, aspirated, and stored as pellets on ice until analysis by flow cytometry using a BD FACS Caliber instrument Becton Dickinson. Binding data was analyzed with FlowJo (Treestar, Inc.) and data was fit to sigmoidal plots using Kaleidagraph (Synergy Software) to calculate equilibrium dissociation constants. Experiments were performed at least 3 times and data are presented as average values with standard deviations.
To determine the integrin binding affinities and specificities of the engineered AgRP peptides, direct binding assays were performed using K562 leukemia cells that have been transfected to stably express different integrin receptors See J. Cell Biol. 127(4) (1994). Cells were incubated in the presence of varying concentrations of AgRP peptides at 4° C., to minimize receptor internalization, followed by staining with a fluorescein-conjugated anti-hexahistidine antibody and analysis by flow cytometry. Equilibrium dissociation constants (KD values) were determined by plotting AgRP peptide concentration (log scale) versus normalized mean fluorescence intensity, then fitting the data to a sigmoidal curve.

human platelets = settings: ADP-activated human platelets; comparison with eptifibatide
Protocol: Human platelets isolated by pheresis were obtained from the Stanford Blood Center and stored in serum with 7% acid/citrate/dextrose (ACD) solution. Prior to use, the platelets were centrifuged, aspirated, washed once with Tyrode's buffer (140 mM NaCl, 3 mM KCl, 12 mM NaHCO3, 0.4 mM NaH2PO4, 2 mM MgCl2, 0.1% glucose, pH 7.4), and counted using a haemacytometer. Counted platelets were resuspended in fresh plasma to a final concentration of approximately 2.8×10^8 cells/mL. 180 μL of the platelet solution, or approximately 5×10^7 platelets, were added to separate wells in a 96-well microtiter plate. AgRP peptide or eptifibatide (Cell Sciences) were added to the wells at varying concentrations, after which the platelets were activated with 25 μM ADP. Absorbance at 365 nm was monitored over 1 hr using a Synergy 4 microplate reader (BioTek Instrumentation) with readings taken every 35 s, with 3 s of shaking between readings. […] Experiments were performed at least 3 times.
Next, the effects of the engineered AgRP peptides on αIIbβ3-mediated platelet aggregation were studied. Three αIIbβ3-specific peptides (2bA, 2bJ, and 2bO) and two β3-specific peptides (b3A and b3I) were tested again. […] Microtiter plates containing platelets in serum in the presence or absence of AgRP peptides were activated using ADP at a final concentration of 25 μM, and absorbance at 365 nm was monitored over 1 h.

T1 sequence (P08514 32-887 limits assumed): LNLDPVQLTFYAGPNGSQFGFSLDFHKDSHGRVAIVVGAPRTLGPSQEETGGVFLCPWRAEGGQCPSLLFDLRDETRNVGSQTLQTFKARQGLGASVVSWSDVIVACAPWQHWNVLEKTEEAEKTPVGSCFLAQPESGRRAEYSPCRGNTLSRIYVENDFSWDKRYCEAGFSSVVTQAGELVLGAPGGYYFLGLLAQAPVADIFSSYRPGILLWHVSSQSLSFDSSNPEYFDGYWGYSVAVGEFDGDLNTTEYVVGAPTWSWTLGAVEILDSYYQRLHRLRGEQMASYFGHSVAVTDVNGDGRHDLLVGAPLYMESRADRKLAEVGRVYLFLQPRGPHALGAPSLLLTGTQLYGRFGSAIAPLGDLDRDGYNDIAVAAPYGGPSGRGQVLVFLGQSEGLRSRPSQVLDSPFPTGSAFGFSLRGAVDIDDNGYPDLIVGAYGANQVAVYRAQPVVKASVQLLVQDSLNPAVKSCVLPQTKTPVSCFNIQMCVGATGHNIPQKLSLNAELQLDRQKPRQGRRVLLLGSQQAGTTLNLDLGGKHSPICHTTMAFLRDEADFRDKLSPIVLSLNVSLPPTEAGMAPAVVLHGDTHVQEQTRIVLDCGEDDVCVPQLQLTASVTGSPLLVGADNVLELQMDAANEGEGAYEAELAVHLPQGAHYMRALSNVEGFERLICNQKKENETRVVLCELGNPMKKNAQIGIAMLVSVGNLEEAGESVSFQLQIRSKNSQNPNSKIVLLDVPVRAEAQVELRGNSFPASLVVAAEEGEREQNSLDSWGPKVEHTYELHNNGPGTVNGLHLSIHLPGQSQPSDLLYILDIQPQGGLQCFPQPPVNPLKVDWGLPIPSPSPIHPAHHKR
T1 sequence (P08514 891-1039 partner limits assumed): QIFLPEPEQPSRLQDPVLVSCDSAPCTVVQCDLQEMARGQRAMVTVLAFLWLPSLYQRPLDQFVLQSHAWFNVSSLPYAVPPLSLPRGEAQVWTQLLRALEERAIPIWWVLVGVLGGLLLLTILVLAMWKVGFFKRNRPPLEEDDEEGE
T1 sequence (P05106 27-788): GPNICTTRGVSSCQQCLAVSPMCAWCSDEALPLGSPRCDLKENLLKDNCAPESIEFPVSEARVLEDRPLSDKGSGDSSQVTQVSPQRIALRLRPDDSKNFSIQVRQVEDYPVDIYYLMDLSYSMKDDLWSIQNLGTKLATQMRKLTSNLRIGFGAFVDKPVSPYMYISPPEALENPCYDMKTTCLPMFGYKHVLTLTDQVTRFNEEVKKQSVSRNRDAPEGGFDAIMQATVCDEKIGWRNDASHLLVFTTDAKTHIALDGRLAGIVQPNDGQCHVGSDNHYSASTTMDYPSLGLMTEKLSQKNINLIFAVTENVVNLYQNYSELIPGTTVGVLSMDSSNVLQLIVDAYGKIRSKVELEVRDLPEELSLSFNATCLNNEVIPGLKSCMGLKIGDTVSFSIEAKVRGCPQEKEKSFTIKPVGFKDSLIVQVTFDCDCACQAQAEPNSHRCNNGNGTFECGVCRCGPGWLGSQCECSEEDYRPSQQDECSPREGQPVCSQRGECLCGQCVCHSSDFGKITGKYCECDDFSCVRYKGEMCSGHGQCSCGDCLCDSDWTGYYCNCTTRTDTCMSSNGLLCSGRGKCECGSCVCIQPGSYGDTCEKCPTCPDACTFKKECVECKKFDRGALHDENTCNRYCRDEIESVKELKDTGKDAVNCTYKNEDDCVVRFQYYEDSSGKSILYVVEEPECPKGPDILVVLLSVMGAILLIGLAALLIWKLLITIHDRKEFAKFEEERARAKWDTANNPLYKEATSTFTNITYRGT

SMILES	integrin binding specificity on K562 cell lines [1]	inhibition of platelet aggregation (in words) (human platelets)
CC(C)C[C@@H]1NC(=O)[C@@H]2CSSC[C@@H]3NC(=O)[C@H]([C@@H](C)O)NC(=O)[C@H](C)NC(=O)[C@H](C)NC(=O)[C@@H]4CCCN4C(=O)[C@H](CC(=O)O)NC(=O)[C@H](CSSC[C@H](NC(=O)CNC(=O)[C@H](CCCNC(=N)N)NC(=O)[C@@H]4CCCN4C(=O)[C@H](CCCCN)NC(=O)[C@H](CC(=O)O)NC(=O)[C@H](CC(=O)O)NC(=O)[C@H](CC(=O)O)NC(=O)[C@H](CC(=O)O)NC(=O)[C@H](CCCCN)NC(=O)[C@H](Cc4ccc(O)cc4)NC(=O)[C@H](CC(=O)O)NC(=O)[C@@H](NC(=O)[C@@H](N)Cc4ccc(O)cc4)C(C)C)C(=O)N[C@@H](C(C)C)C(=O)N[C@@H](CCCNC(=N)N)C(=O)N[C@@H](CC(C)C)C(=O)N[C@@H](Cc4c[nH]cn4)C(=O)N[C@@H](CCC(=O)O)C(=O)N[C@@H](CO)C(=O)N2)NC(=O)[C@H](CSSC[C@@H](C(=O)N[C@@H](CCCNC(=N)N)C(=O)N[C@H](C(=O)N[C@@H](CCCNC(=N)N)C(=O)N[C@@H](Cc2c[nH]cn2)C(=O)N[C@@H](Cc2c[nH]cn2)C(=O)N[C@@H](Cc2c[nH]cn2)C(=O)N[C@@H](Cc2c[nH]cn2)C(=O)N[C@@H](Cc2c[nH]cn2)C(=O)N[C@@H](Cc2c[nH]cn2)C(=O)O)[C@@H](C)O)NC(=O)[C@H](Cc2ccc(O)cc2)NC(=O)[C@@H]2CSSC[C@H](NC(=O)[C@H](Cc4ccc(O)cc4)NC3=O)C(=O)N[C@@H](CCCNC(=N)N)C(=O)NCC(=O)N[C@@H](CCCNC(=N)N)C(=O)NCC(=O)N[C@@H](CC(=O)O)C(=O)N[C@@H](C(C)C)C(=O)N[C@@H](CCCCN)C(=O)N[C@@H](CC(C)C)C(=O)N[C@@H](CCCNC(=N)N)C(=O)N2)NC(=O)[C@@H]2CCCN2C(=O)[C@H](C(C)C)NC(=O)[C@H](CCC(N)=O)NC(=O)[C@H](CCC(N)=O)NC(=O)CNC1=O [b3I]	bound both K562-αIIbβ3 and K562-αvβ3 cells	slightly more effective
CC(C)C[C@@H]1NC(=O)[C@@H]2CSSC[C@@H]3NC(=O)[C@H]([C@@H](C)O)NC(=O)[C@H](C)NC(=O)[C@H](C)NC(=O)[C@@H]4CCCN4C(=O)[C@H](CC(=O)O)NC(=O)[C@H](CSSC[C@H](NC(=O)CNC(=O)[C@H](CCCNC(=N)N)NC(=O)[C@@H]4CCCN4C(=O)[C@H](CCCCN)NC(=O)[C@H](CC(=O)O)NC(=O)[C@H](CC(=O)O)NC(=O)[C@H](CC(=O)O)NC(=O)[C@H](CC(=O)O)NC(=O)[C@H](CCCCN)NC(=O)[C@H](Cc4ccc(O)cc4)NC(=O)[C@H](CC(=O)O)NC(=O)[C@@H](NC(=O)[C@@H](N)Cc4ccc(O)cc4)C(C)C)C(=O)N[C@@H](C(C)C)C(=O)N[C@@H](CCCNC(=N)N)C(=O)N[C@@H](CC(C)C)C(=O)N[C@@H](Cc4c[nH]cn4)C(=O)N[C@@H](CCC(=O)O)C(=O)N[C@@H](CO)C(=O)N2)NC(=O)[C@H](CSSC[C@@H](C(=O)N[C@@H](CCCNC(=N)N)C(=O)N[C@H](C(=O)N[C@@H](CCCNC(=N)N)C(=O)N[C@@H](Cc2c[nH]cn2)C(=O)N[C@@H](Cc2c[nH]cn2)C(=O)N[C@@H](Cc2c[nH]cn2)C(=O)N[C@@H](Cc2c[nH]cn2)C(=O)N[C@@H](Cc2c[nH]cn2)C(=O)N[C@@H](Cc2c[nH]cn2)C(=O)O)[C@@H](C)O)NC(=O)[C@H](Cc2ccc(O)cc2)NC(=O)[C@@H]2CSSC[C@H](NC(=O)[C@H](Cc4ccc(O)cc4)NC3=O)C(=O)N[C@@H](C(C)C)C(=O)NCC(=O)N[C@@H](CCCNC(=N)N)C(=O)NCC(=O)N[C@@H](CC(=O)O)C(=O)N[C@@H](C(C)C)C(=O)N[C@@H](CCCNC(=N)N)C(=O)N[C@@H](CCCNC(=N)N)C(=O)N[C@@H](CCCCN)C(=O)N2)NC(=O)[C@@H]2CCCN2C(=O)[C@H](C(C)C)NC(=O)[C@H](CCC(N)=O)NC(=O)[C@H](CCC(N)=O)NC(=O)CNC1=O [b3A]	bound both K562-αIIbβ3 and K562-αvβ3 cells	slightly more effective

— patent publication US8778888B2, “Cystine knot peptides binding to alpha IIb beta 3 integrins and methods of use” (The Board of Trustees of the Leland Stanford Junior …, priority 2009, dated 2014)
